Data as given in patent US20210198277A1, “AMINE-SUBSTITUTED ARYL OR HETEROARYL COMPOUNDS” (Epizyme, Inc., priority 2016, published 2021).
Like-named read-outs stand apart in the source and are kept apart here.

Legend:
human EHMT2 913-1193 = target: T1, human EHMT2 913-1193 (Homo sapiens, UniProt Q96KQ7); assay: EHMT2 enzyme assay on histone peptide substrate (EHMT2 PEP); format: biochemical
T1 construct: recombinant purified human EHMT2 913-1193, Viva; purchased Viva
T1 sequence (Q96KQ7 913-1193): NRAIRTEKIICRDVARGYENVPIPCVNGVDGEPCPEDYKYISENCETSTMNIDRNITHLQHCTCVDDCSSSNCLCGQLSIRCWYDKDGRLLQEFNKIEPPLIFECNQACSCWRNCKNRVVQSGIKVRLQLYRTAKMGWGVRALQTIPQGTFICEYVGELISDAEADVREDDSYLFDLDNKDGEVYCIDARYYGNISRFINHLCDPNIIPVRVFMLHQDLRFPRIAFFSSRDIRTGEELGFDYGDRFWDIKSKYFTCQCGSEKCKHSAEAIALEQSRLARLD
Protocol: Recombinant purified human EHMT2 913-1193 (55 μM) synthesized by Viva was used for all experiments. Biotinylated histone peptides were synthesized by Biopeptide and HPLC-purified to >95% purity. Streptavidin Flashplates and seals were purchased from PerkinElmer and 384 Well V-bottom Polypropylene Plates were from Greiner. ^3H-labeled S-adenosylmethionine (^3H-SAM) was obtained from American Radiolabeled Chemicals with a specific activity of 80 Ci/mmol. Unlabeled SAM and S-adenosylhomocysteine (SAH) were obtained from American Radiolabeled Chemicals and Sigma-Aldrich respectively. Flashplates were washed in a Biotek ELx-405 with 0.1% Tween. 384-well Flashplates and 96-well filter binding plates were read on a TopCount microplate reader (PerkinElmer). Compound serial dilutions were performed on a Freedom EVO (Tecan) and spotted into assay plates using a Thermo Scientific Matrix PlateMate (Thermo Scientific). Reagent cocktails were added by Multidrop Combi (Thermo Scientific).
General Procedure for EHMT2 Enzyme Assay on Histone Peptide Substrate.
10-point curves of test compounds were made on a Freedom EVO (Tecan) using serial 3-fold dilutions in DMSO, beginning at 2.5 mM (final top concentration of compound was 50 μM and the DMSO was 2%). A 1 μL aliquot of the inhibitor dilution series was spotted in a polypropylene 384-well V-bottom plate (Greiner) using a Thermo Scientific Matrix PlateMate (Thermo Scientific). […] Compounds were incubated for 30 minutes with 40 μL per well of 0.031 nM EHMT2 (recombinant purified human EHMT2 913-1193, Viva) in 1× assay buffer (20 mM Bicine [pH 7.5], 0.002% Tween 20, 0.005% Bovine Skin Gelatin and 1 mM TCEP). […] Reactions were incubated for 60 minutes at room temperature and quenched with 10 μL per well of 400 μM unlabeled SAM, then transferred to a 384-well streptavidin Flashplate (PerkinElmer) and washed in a Biotek ELx-405 well washer with 0.1% Tween after 60 minutes. 384-well Flashplates were read on a TopCount microplate reader (PerkinElmer).

EHMT1 = target: T2, EHMT1 (Homo sapiens, UniProt Q9H9B1); assay: EHMT1 enzyme assay on peptide substrate (EHMT1 PEP); format: biochemical
T2 sequence (Q9H9B1 1-1298): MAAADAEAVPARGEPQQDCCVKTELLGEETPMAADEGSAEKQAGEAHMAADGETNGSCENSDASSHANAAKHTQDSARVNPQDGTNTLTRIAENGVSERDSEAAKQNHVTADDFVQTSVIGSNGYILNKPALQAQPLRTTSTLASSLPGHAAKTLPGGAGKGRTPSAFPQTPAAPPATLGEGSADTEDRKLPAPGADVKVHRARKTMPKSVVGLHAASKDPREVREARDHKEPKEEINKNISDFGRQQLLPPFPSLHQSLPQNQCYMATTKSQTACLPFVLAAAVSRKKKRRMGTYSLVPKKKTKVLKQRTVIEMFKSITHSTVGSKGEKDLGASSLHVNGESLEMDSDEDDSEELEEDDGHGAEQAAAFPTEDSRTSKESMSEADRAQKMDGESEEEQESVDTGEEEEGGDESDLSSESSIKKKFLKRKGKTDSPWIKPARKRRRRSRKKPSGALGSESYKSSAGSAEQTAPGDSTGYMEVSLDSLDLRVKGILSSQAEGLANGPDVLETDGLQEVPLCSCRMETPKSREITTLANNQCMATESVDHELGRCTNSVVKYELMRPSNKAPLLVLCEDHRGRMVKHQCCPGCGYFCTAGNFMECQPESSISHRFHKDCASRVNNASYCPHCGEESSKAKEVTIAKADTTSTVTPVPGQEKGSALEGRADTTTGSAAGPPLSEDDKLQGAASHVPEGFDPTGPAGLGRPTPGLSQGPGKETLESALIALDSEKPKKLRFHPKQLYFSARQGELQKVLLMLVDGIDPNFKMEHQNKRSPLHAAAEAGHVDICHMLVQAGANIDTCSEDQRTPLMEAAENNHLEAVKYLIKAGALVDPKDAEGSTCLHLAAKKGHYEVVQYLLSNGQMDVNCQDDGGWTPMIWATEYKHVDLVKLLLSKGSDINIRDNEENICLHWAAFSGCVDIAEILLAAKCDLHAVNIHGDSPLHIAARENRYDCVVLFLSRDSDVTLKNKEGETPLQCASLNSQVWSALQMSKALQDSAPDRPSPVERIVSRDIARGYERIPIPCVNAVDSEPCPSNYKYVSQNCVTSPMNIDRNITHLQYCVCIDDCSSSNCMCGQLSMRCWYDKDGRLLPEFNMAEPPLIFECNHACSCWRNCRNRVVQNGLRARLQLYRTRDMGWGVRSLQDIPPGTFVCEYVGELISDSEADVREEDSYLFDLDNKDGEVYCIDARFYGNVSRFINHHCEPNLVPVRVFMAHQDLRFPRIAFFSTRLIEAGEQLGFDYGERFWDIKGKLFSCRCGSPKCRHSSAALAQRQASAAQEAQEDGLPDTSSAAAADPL

[1] = Table II, read-out: EHMT2 PEP (IC50 μM)
[2] = Table II, read-out: EHMT1 PEP (IC50 μM)
[3] = Table III, read-out: EHMT2 PEP (IC50 μM)
[4] = Table III, read-out: EHMT1 PEP (IC50 μM)
[5] = Table VII, read-out: EHMT2 PEP IC50
[6] = Table VII, read-out: EHMT1 PEP IC50

Row | Compound | IC50 (human EHMT2 913-1193; [1]) | IC50 (EHMT1; [2]) | other results
1 | COc1ccc(Nc2nccc(CNC3CCN(C)CC3)n2)cc1OCCCN1CCCC1 [Compound 111] | > 10 µM | > 10 µM | 
2 | COc1ccc(Nc2nccc(CN(C)C3CCOCC3)n2)cc1OCCCN1CCCC1 [Compound 112] | > 10 µM | > 10 µM | 
3 | COc1ccc(Nc2cccc(NCC3CCNCC3)n2)cc1OCCCN1CCCC1 [Compound 113] | 1 to 10 µM | 1 to 10 µM | 
4 | CC(=O)N1CCC(CNc2ccnc(Nc3cccc(NC(=O)CCN4CCCC4)c3)n2)CC1 [Compound 114] | > 10 µM | > 10 µM | 
5 | CC(=O)N1CCC(CNc2ccnc(Nc3cccc(NC(=O)c4ccc5c(c4)CC(=O)N5)c3)n2)CC1 [Compound 115] | > 10 µM | > 10 µM | 
6 | COc1ccc(Nc2nccc(NCC3CCNCC3)n2)cc1OCCCN1CCCC1Cc1ccccc1 (stereo not drawn) [Compound 116] | 1 to 10 µM | 1 to 10 µM | 
7 | COc1ccc(Nc2nccc(NCC3CCN(C(C)=O)CC3)n2)cc1OCCCN1CC[C@H](F)C1 [Compound 117] | 1 to 10 µM | 1 to 10 µM | 
8 | COc1ccc(Nc2nccc(NCC3CCN(C(C)=O)CC3)n2)cc1OCCCN1CC[C@@H](F)C1 [Compound 118] | 0.1 to 1 µM | 0.1 to 1 µM | 
9 | COc1ccc(Nc2nccc(NCC3CCN(C(C)=O)CC3)n2)cc1OCCCN1CCCC1=O [Compound 119] | > 10 µM | > 10 µM | 
10 | COc1ccc(Nc2nccc(NCC3CCN(C(C)=O)CC3)n2)cc1OCC1CCCN1C (stereo not drawn) [Compound 120] | 1 to 10 µM | 0.1 to 1 µM | 
11 | COc1ccc(Nc2nccc(NCC3CCN(C(C)=O)CC3)n2)cc1NC(=O)CCN1CCCC1 [Compound 121] | 1 to 10 µM | 1 to 10 µM | 
12 | CC(=O)N1CCC(CNc2ccnc(Nc3cccc(NC(=O)c4cc(C5CC5)on4)c3)n2)CC1 [Compound 122] | > 10 µM | > 10 µM | 
13 | CC(=O)N1CCC(CNc2ccnc(Nc3cccc(NC(=O)c4cn(C5CC5)nn4)c3)n2)CC1 [Compound 123] | > 10 µM | > 10 µM | 
14 | COc1ccc(Nc2nccc(N3CCCC3)n2)cc1OCCCN1CCCC1 [Compound 124] | 1 to 10 µM | 1 to 10 µM | 
15 | COc1ccc(Nc2nccc(N3CCCCC3)n2)cc1OCCCN1CCCC1 [Compound 125] | 1 to 10 µM | 1 to 10 µM | 
16 | COc1ccc(Nc2ccnc(CNC3CCOCC3)n2)cc1OCCCN1CCCC1 [Compound 190] | 1 to 10 µM | 1 to 10 µM | 
17 | COc1ccc(Nc2ncc(NC(C)=O)cn2)cc1OCCCN1CCCC1 [Compound 194] | > 10 µM | > 10 µM | 

Row | Compound | IC50 (human EHMT2 913-1193; [1]) | IC50 (EHMT1; [2]) | other results
18 | COc1ccc(Nc2nccc(CCN3CCN(C(C)=O)CC3)n2)cc1OCCCN1CCCC1 [Compound 196] | > 10 µM | > 10 µM | 
19 | COc1ccc(Nc2cccc3nn(C)cc23)cc1OCCCN1CCCC1 [Compound 197] | > 10 µM | > 10 µM | 
20 | COc1ccc(Nc2ccc3ncn(C)c3c2)cc1OCCCN1CCCC1 [Compound 200] | > 10 µM | > 10 µM | 
21 | COc1ccc(Nc2cccn3ncnc23)cc1OCCCN1CCCC1 [Compound 201] | > 10 µM | > 10 µM | 
22 | COc1ccc(Nc2cc(C)nc3ncnn23)cc1OCCCN1CCCC1 [Compound 202] | > 10 µM | > 10 µM | 
23 | CNc1nc(Nc2ccc(OC)c(OCCCN3CCCC3)c2)ncc1Cl [Compound 211] | 1 to 10 µM | 1 to 10 µM | 
24 | CNc1ccnc(Nc2cccc(OCC(O)CN3CCCC3)c2)n1 (stereo not drawn) [Compound 212] | 1 to 10 µM | 1 to 10 µM | 
25 | COc1ccc(Nc2ncc(N)cn2)cc1OCCCN1CCCC1 [Compound 213] | > 10 µM | > 10 µM | 
26 | COc1ccc(Nc2nccc(NCC3COC3)n2)cc1OCCCN1CCCC1 [Compound 256, N^2-(4-methoxy-3-(3-(pyrrolidin-1-yl)propoxy)phenyl)-N^4-(oxetan-3-ylmethyl)pyrimidine-2,4-diamine] |  |  | IC50 (human EHMT2 913-1193; [3]): > 10 µM; IC50 (EHMT1; [4]): > 10 µM
27 | CNc1nc(Nc2ccc(OC)c(OCCCN3CCCC3)c2)nc2ccccc12 [Compound 263, N^2-(4-methoxy-3-(3-(pyrrolidin-1-yl)propoxy)phenyl)-N^4-methylquinazoline-2,4-diamine] |  |  | IC50 (human EHMT2 913-1193; [3]): < 0.1 µM; IC50 (EHMT1; [4]): < 0.1 µM
28 | CNc1ccnc(Nc2ccc(OC(F)(F)F)c(OCCCN3CCCC3)c2)n1 [Compound 315, N^4-methyl-N^2-(3-(3-(pyrrolidin-1-yl)propoxy)-4-(trifluoromethoxy)phenyl)pyrimidine-2,4-diamine] |  |  | IC50 (human EHMT2 913-1193; [3]): 1 to 10 µM; IC50 (EHMT1; [4]): 1 to 10 µM
29 | CCc1ccccc1NC(=O)Nc1ccc(Nc2nc(C)cc(N3CCCC3)n2)cc1 [Compound 1115] |  |  | IC50 (human EHMT2 913-1193; [5]): 1 to 10 µM; IC50 (EHMT1; [6]): 1 to 10 µM
30 | CCNc1nc(C)cc(Nc2ccc(NC(=O)Nc3ccc(F)cc3)cc2)n1 [Compound 1116] |  |  | IC50 (human EHMT2 913-1193; [5]): 1 to 10 µM; IC50 (EHMT1; [6]): > 10 µM
31 | Cc1cc(N(C)C)nc(Nc2ccc(NC(=O)Nc3ccc(Cl)cc3)cc2)n1 [Compound 1117] |  |  | IC50 (human EHMT2 913-1193; [5]): 1 to 10 µM; IC50 (EHMT1; [6]): > 10 µM
32 | CCNc1nc(C)cc(Nc2ccc(NC(=O)Nc3ccc(C)c(C)c3)cc2)n1 [Compound 1118] |  |  | IC50 (human EHMT2 913-1193; [5]): 1 to 10 µM; IC50 (EHMT1; [6]): > 10 µM
33 | Cc1ccc(NC(=O)Nc2ccc(Nc3nc(C)cc(N4CCCC4)n3)cc2)cc1 [Compound 1119] |  |  | IC50 (human EHMT2 913-1193; [5]): 1 to 10 µM; IC50 (EHMT1; [6]): 1 to 10 µM
